# Test results: PubChem BioAssay (NCI)
#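 Step 1: Grow cells in 96-well plates. Step 2: Expose to compound for 48 hours at 5 concentrations. Step 3: Interpolate endpoints linearly; if unreached, use highest concentration. The concentration for full growth arrest is given as TGI.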
# Experiments:
# Assay in all cases: NCI tumour cell line growth inhibition, 48 h
# A549 NSCLC = system: A549 NSCLC
# M14 melanoma = system: M14 melanoma
# NCI-H460 lung = system: NCI-H460 lung
# NCI-H522 lung = system: NCI-H522 lung
# OVCAR-8 ovarian = system: OVCAR-8 ovarian
# PC-3 prostate = system: PC-3 prostate
# SF-268 CNS = system: SF-268 CNS
# SF-539 CNS = system: SF-539 CNS
# SW-620 colon = system: SW-620 colon
# T-47D breast = system: T-47D breast
Structure (SMILES),TGI (A549 NSCLC) [µM],TGI (M14 melanoma) [µM],TGI (NCI-H460 lung) [µM],TGI (NCI-H522 lung) [µM],TGI (OVCAR-8 ovarian) [µM],TGI (PC-3 prostate) [µM],TGI (SF-268 CNS) [µM],TGI (SF-539 CNS) [µM],TGI (SW-620 colon) [µM],TGI (T-47D breast) [µM]
COc1ccc2c(c1)/c(=C/C#N)c1c3ccccc3[n+](C)n21,16.2,32.4,32.9,20.4,> 100,11.7,30.5,11.8,> 39.2,10.6
Cc1cc(C)n(-c2nc(C)c(CCO)c(=O)[nH]2)n1,> 100,> 100,> 100,> 100,> 100,> 100,> 100,> 100,> 100,> 100
Cc1ccnc(Nc2[nH]c(C(=O)c3ccc(Cl)cc3)c(N)c2C(=S)Nc2ccccc2)c1,53,31.9,27.3,27.1,34.5,> 100,59.8,26.6,69.6,> 100
COc1ccc(-c2oc3cc(O)c(OC)c(O)c3c(=O)c2O)cc1,18,> 100,26.4,57.8,> 75.3,> 100,> 77.1,41.6,> 70.1,> 100
COc1cc2c[n+](C)c3c4cc(OC)c(OCc5ccccc5)cc4c(OCc4ccccc4)cc3c2cc1OC,> 88.8,21.6,> 100,3.4,19.6,11.1,17.4,11.8,20.5,21.6
Cn1cc2c3ccccc3nc-2c2ccccc21,5.65,4.4,4.34,3.18,3.42,5.78,6.86,3.66,3.89,5.87
CC1CN(CCO)CCN1c1ccccc1 (stereo not given),> 100,> 100,> 100,> 100,> 100,> 100,> 100,> 100,> 100,> 100
Cc1cc(C)c2c(n1)S(=O)(=O)N(CCCN1CCN(c3cccc(Cl)c3)CC1)/C(=C(\O)c1ccc(Br)cc1)C2=O,71,> 100,33.2,> 100,> 100,> 100,> 100,95.6,> 100,> 100
O=c1c2c3c(sc2nc2n1NC=NN2)CCCC3,> 100,> 57,38.3,36.4,58.2,> 56.7,34.8,36.9,38.7,> 65.8
CCOC(=O)c1nc2cc(Cl)ccc2[nH]c1=O,> 100,> 100,> 100,> 100,> 100,> 100,> 100,> 100,> 100,> 100
COc1ccc(-c2nnc3n(C)c4ccccc4n3c2=O)cc1,> 100,> 100,> 100,> 100,> 100,> 100,> 100,> 100,> 100,> 100
O=C1CC(c2ccccc2)n2c(nc3ccccc32)N1 (stereo not given),> 100,> 100,> 100,> 100,> 100,> 100,> 100,> 100,> 100,> 100
CN(C)CC1CCC/C(=C\c2ccc(OC(=O)/C=C/c3ccc(Cl)cc3)cc2)C1=O (stereo not given),21.6,20,18.1,1.91,19.3,11.7,12.4,5.79,6.44,4.64
C(=C/c1nnnn1-c1ccccc1)/Nc1ccccc1,> 100,77.3,> 100,81.8,> 100,> 100,> 100,64.7,> 100,> 100
C=C1CCOC2(C(O)C(C)(O)CO)NC(=O)C1(O)NC2=O (stereo not given),> 100,> 100,> 100,> 100,> 100,> 100,> 100,> 100,> 100,> 100
Cc1cc(O)c2c(c1)C(C1c3cccc(O)c3C(=O)c3c(O)cc(C)cc31)c1cccc(O)c1C2=O (stereo not given),0.97,7.49,12.8,3.44,16.1,2.81,14,0.556,12.9,2.98
COC(=O)C(=O)C(C(=O)OC)C(=O)C(=O)Nc1c(Cl)cc([N+](=O)[O-])cc1Cl (stereo not given),> 100,> 100,> 100,> 100,> 100,> 100,> 100,> 100,> 100,> 100
